1 compound from patent US7232805B2, “Cobalamin conjugates for anti-tumor therapy” (Inflabloc Pharmaceuticals, Inc., priority 2003, dated 2007) can be followed below.

For one data set, the system named is SK-N-MC cells. Kind of data set: CellTiter-Glo Luminescent Cell Viability Assay, SK-N-MC cells. In kind it is cell-based, human. The following applies: 96 hours, 100 μM down to 10 nM. From the text:
FIG. 8 is a chart depicting the results of an in vitro assay of the stable conjugate against SK-N-MC cells, cells derived from a human brain neuroblastoma (neuroepithelioma) cell line. The assay employed is the CellTiter-Glo™ Luminescent Cell Viability Assay from Promega Corporation, which is recognized in the art as being predictive of the effect of a compound on cell viability. FIG. 8 depicts the results of the assay conducted according to Example 9. The method described by Promega Corporation (Technical Bulletin No. 288) was followed with no exceptions.
(§1) Doxorubicin and CobalaRubicin-200 stocks and stock solutions, prepared in 5% DMSO in water, were stored at −20° C. and protected from light. […]
After 96 hours, the effects of doxorubicin and B12-S-doxorubicin on cell viability were determined using an assay from Promega. The CellTiter-Glo™ Luminescent Cell Viability Assay quantitates the ATP present in a culture, which correlates with metabolically active cells. Luminescence, which is dependent on ATP concentration, was measured for each individual well on a Wallac MicroBeta® JET Liquid Scintillation and Luminescence Counter. The average luminescence value of the three wells containing medium alone was subtracted from the raw data values to give corrected values. […] Percent cell viability was calculated by considering the untreated cells as 100% viable. […]

Data set [1] concerns normal murine lymph node cells. Put plainly: CellTiter-Glo Luminescent Cell Viability Assay, normal murine lymph node cells. In kind it is cell-based. Conditions: 96 hours, FIG. 7.
Excerpt: FIG. 7 is a chart depicting the results of an in vitro assay of the conjugate against normal murine lymph node cells. The assay employed is the CellTiter-Glo™ Luminescent Cell Viability Assay from Promega Corporation, which is recognized in the art as being predictive of the effect of a compound on cell viability. The assay is detailed in Example 8. The method described by Promega Corporation (Technical Bulletin No. 288) was followed with no exceptions.
as §1
After 96 hours, the effects of doxorubicin and B12-S-doxorubicin on cell viability were determined using an assay from Promega. The CellTiter-Glo™ Luminescent Cell Viability Assay quantitates the ATP present in a culture, which correlates with metabolically active cells. Luminescence, which is dependent on ATP concentration, was measured for each individual well on a Wallac MicroBeta® JET Liquid Scintillation and Luminescence Counter. The average luminescence value of the three wells containing medium alone was subtracted from the raw data values to give corrected values. […] The three corrected values for wells dosed with the same concentration of compound were averaged and the standard deviation calculated. Percent cell viability was calculated by considering the untreated cells as 100% viable. […]
Background: In ATP-based viability assays light output follows the ATP content of the culture.

In data set [2] the test system is MX-1 human breast carcinoma xenograft. Kind of data set: tumor growth delay, MX-1 xenograft, two-cycle dosing (Example 11).
Protocol: The following procedure was used to investigate the tumor growth delay effects of the conjugate, particularly for the treatment of MX-1 human breast carcinoma xenograft in athymic mice using a two-cycle dosing regimen. Female nude Harlan mice are implanted subcutaneously with 1 mm^3 MX 1 solid tumor fragments in the flank. During the pre-dose phase of implantation and growth, tumors are initially monitored twice weekly, and then daily as the neoplasms approach the desired size of 80-120 mg. When the majority of tumors reached the targeted weight range (80-120 mg), mice are pair-matched into 5 treatment groups of 10 mice each. For purposes of this illustrationon the effect of 2-cycles of treatment, data from 3 groups are shown: no treatment, 3 mg/kg/day (days 1-5, 21-25) intravenous Doxorubicin and 24 mg/kg/day (days 1-5, 21-25) intravenous bioconjugate. Test article administration began on this day, referred to as Day 1. The tumor growth delay endpoint is reached when the tumor on the mouse reaches 1.5 gm weight estimated by the formula: Tumor weight (mg)=w^2×l/2×1 mg/mm^3, where w=width (mm) and l=length (mm) of the tumor. The median time to endpoint is calculated for each treatment group.
[3] abbreviates: lower dose than 24 mg/kg/day, data not shown.
[4] abbreviates: two cycles of 24 mg/kg/day intravenous.
Setting [5] is: two cycles of 24 mg/kg/day intravenous, at 71 days.

As to `COc1cccc2c1C(=O)c1c(O)c3c(c(O)c1C2=O)C[C@@](O)(C(=O)CO)C[C@@H]3O[C@H]1C[C@H](NC(=O)OCc2ccc(NC(=O)[C@H](CCCCN)NC(=O)[C@H](Cc3ccccc3)NC(=O)CCCCCNC(=O)OC[C@H]3O[C@H](n4cnc5cc(C)c(C)cc54)[C@H](O)[C@@H]3OP(=O)(O)O[C@H](C)CNC(=O)CC[C@@]3(C)C4=C(C)C5=NC(=CC6=NC(=C(C)C7=N[C@@](C)([C@H](N4)[C@@H]3CC(N)=O)[C@@](C)(CC(N)=O)[C@@H]7CCC(N)=O)[C@@](C)(CC(N)=O)[C@@H]6CCC(N)=O)C(C)(C)[C@@H]5CCC(N)=O)cc2)[C@H](O)[C@H](C)O1` [conjugate 13, B12-5′-OCONH(CH2)5CO-Phe-Lys-PABC-Dox], the “cell viability / cytotoxicity” value with SK-N-MC cells (FIG. 6d and FIG. 8) is “very efficacious”. Besides, the “cell viability / cytotoxicity” value in the data set with SK-N-MC cells (FIG. 6d and FIG. 8, listed as CobalaRubicin 200) was “same effectiveness as doxorubicin and is slightly less potent than doxorubicin”. Further, the “cell viability versus free doxorubicin” value in data set [1] is reported as “as effective as doxorubicin but shows slightly less potency than doxorubicin”. In addition, in data set [2] (setting [3]), the “efficacy versus free doxorubicin on a molar equivalent basis” value was “less efficacious than free doxorubicin” and the “tumor growth versus non-treatment control” value was “delay in tumor growth was observed”. Besides, in data set [2] (two cycles of 24 mg/kg/day (days 1-5, 21-25) intravenous), the “time to endpoint longer than control mice” value stood at 44 days. In addition, in data set [2] (setting [4]), the “maximum body weight loss” value was determined as 10% and the “treatment or nontreatment related deaths” value is on record as “no treatment or nontreatment related deaths”. In data set [2] (setting [5]), the “long-term, tumor-free survivors” value is recorded as 7 of 10 and the “mice that developed complete regression” value is on record as 9 of 10. The “recovery from weight loss versus native doxorubicin” value in data set [2] (two-cycle study, FIG. 12b, equivalent dose of doxorubicin in the conjugate 2-fold greater) is reported as “tended recover from their weight loss sooner”. Further, in data set [2] (two-cycle study, doxorubicin 3 mg/kg/day, bioconjugate 24 mg/kg/day), the “weight loss” value was “significant weight loss”. Also, in data set [2] (two-cycle treatment, study day 71, FIG. 11), the “reduction of tumor size and delay of tumor growth” value was “extremely effective at reducing tumor size and delaying tumor growth”.
